Results from patent US20200222474A1, “COMPOSITIONS AND METHODS FOR INCREASING PHYTOCHEMICAL BIOAVAILABLITY AND BIOACTIVITY” (North Carolina State University, priority 2017, published 2020).

Tests used:
[1] = test system: L. crispatus ATCC 33820, DSM 20584; test: Phenotypic growth assay (OD600); assay type: cell-based; conditions: SDM + 1% (w/v) carbohydrate (0.5% esculin), 37° C., 30 hours; corrected to medium without carbohydrate
Method in brief: (§1)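 Growth, recorded as OD600 over 30 hours at 37° C., was measured in SDM with 1% (w/v) of each examined carbohydrate (esculin at 0.5%). Inocula were 1% (v/v) overnight cultures pregrown on SDM plus 1% (w/v) glucose.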

[2] = test system: L. amyloverus ATCC 33620, DSM 20531; test: Phenotypic growth assay (OD600); assay type: cell-based; conditions: SDM + 1% (w/v) carbohydrate (0.5% esculin), 37° C., 30 hours; corrected to medium without carbohydrate
Method in brief: as §1

L. acidophilus LA-1 = test: Phenotypic growth assay (OD600); assay type: cell-based; conditions: SDM + 1% (w/v) carbohydrate (0.5% esculin), 37° C., 30 hours; corrected to medium without carbohydrate
Method in brief: as §1

L. animalis DSM 20602 = test: Phenotypic growth assay (OD600); assay type: cell-based; conditions: SDM + 1% (w/v) carbohydrate (0.5% esculin), 37° C., 30 hours; corrected to medium without carbohydrate
Method in brief: as §1

L. fermentum ATCC 14931 = test: Phenotypic growth assay (OD600); assay type: cell-based; conditions: SDM + 1% (w/v) carbohydrate (0.5% esculin), 37° C., 30 hours; corrected to medium without carbohydrate
Method in brief: as §1

[3] = test system: L. plantarum sp. plantarum ATCC 14917, LA70; test: Phenotypic growth assay (OD600); assay type: cell-based; conditions: SDM + 1% (w/v) carbohydrate (0.5% esculin), 37° C., 30 hours; corrected to medium without carbohydrate
Method in brief: as §1

[4] = test system: L. rhanmosus GG (ATCC 53103); test: Phenotypic growth assay (OD600); assay type: cell-based; conditions: SDM + 1% (w/v) carbohydrate (0.5% esculin), 37° C., 30 hours; corrected to medium without carbohydrate
Method in brief: as §1

[5] = test system: L. reuteri (ATCC 23272, DSM 20016); test: Phenotypic growth assay (OD600); assay type: cell-based; conditions: SDM + 1% (w/v) carbohydrate (0.5% esculin), 37° C., 30 hours; corrected to medium without carbohydrate
Method in brief: as §1

[6] = test system: NCK2426 (ΔLBA0225ΔLBA0726); test: Phenotypic growth analysis of double phospho-β-glucosidase mutant; assay type: cell-based, Lactobacillus acidophilus; conditions: compared with background Δupp strain
Experimental: (§2) Phenotypic growth assays were performed using 1% (v/v) overnight cultures of L. acidophilus strains (Table 2) and other Lactobacillus species (Table 3) grown on SDM supplemented with 1% (w/v) glucose to inoculate 200 μL of SDM supplemented with 1% (w/v) of the examined carbohydrate (0.5% in the case of esculin) in 96-well microplate wells (Corning Costar, Corning, N.Y., USA) in duplicate or triplicate wells, respectively. The microplates were sealed with clear adhesive film, incubated at 37° C. in a Fluostar Optima microplate reader (BMG Labtech, Cary, N.C., USA), and the cell optical density (OD600) was monitored for 30 hours.
Construction of gene deletion mutants. The L. acidophilus NCFM genes LBA0225 and LBA0726, both encoding P-Bgl of glycoside hydrolase family 1 (GH1) enzymes in addition to the LBA0227 and LBA0725 genes encoding an EIIC and an EIICBA components of two PTS systems, respectively, were deleted using the upp-based counterselectable gene replacement system. […]
(§3) To establish the functional significance of these two loci, single deletions of each PTS EII and P-Bgl gene, and a double deletion of both P-Bgl genes were constructed using the upp-based counter-selectable gene replacement system (Table 2) and the growth phenotypes of the mutant strains were analyzed (FIG. 3). […]

L. acidophilus NCFM = test: Growth of L. acidophilus NCFM on plant glycosides as single carbon source (OD600); assay type: cell-based, Lactobacillus acidophilus; conditions: for Growth (OD600 max class) of L. acidophilus NCFM: SDM + 1% (w/v) carbohydrate (0.5% esculin), 37° C., 30 hours, corrected to medium without carbohydrate; for OD600 max: single carbon source, 200 μl cultures, 96 microtitre plates, corrected for medium without carbon source
Experimental: For initial growth and gene expression studies, L. acidophilus NCFM was propagated three times in semi-defined medium (SDM) supplemented with either 1% or 0,5% (w/v) of the plant glycoside or carbohydrate (Table 1). For the RNA-seq analysis, cells were harvested by centrifugation (3,220×10 min, 25° C.) in the mid-exponential phase (OD600=0.6-0.8) and stored at −80° C. for subsequent RNA isolation. For the mass spectrometry metabolite analyses, 200 μt samples were taken at 0, 3, 6, 9, 12, and 24 hours of growth; cells were removed by centrifugation; and supernatants were stored at −80° C. for further analysis.
as §2
The growth of L. acidophilus NCFM was evaluated on twelve chemically diverse, nutritionally relevant and/or therapeutically active PGs 1; Table 1). FIG. 1A provides the structures and common sources of plant glycoside substrates described herein. The compounds that support growth of Lactobacillus acidophilus are in green. RI: β-D-Glcp; R2: Gentiobioside (β-D-Glcp-(1,6)-D-Glcp); R3: Rutinoside (α-L-Rhaf-(1,6)-D-Glcp). The graph in FIG. 1B depicts plant glycoside utilization analyzed by mass spectrometry and the growth as the maximum OD600. Due to the low solubility of polydatin, OD600 cannot be used as a growth metric and utilization of this compound is confirmed by the production of lactate as well as a high utilization level based on the metabolite analysis.

NCK2424 (ΔLBA0726) = test: Phenotypic growth analysis of deletion mutant (phospho-β-glucosidase); assay type: cell-based, Lactobacillus acidophilus; conditions: compared with background Δupp strain
Experimental: as §2
Construction of gene deletion mutants. The L. acidophilus NCFM genes LBA0225 and LBA0726, both encoding P-Bgl of glycoside hydrolase family 1 (GH1) enzymes in addition to the LBA0227 and LBA0725 genes encoding an EIIC and an EIICBA components of two PTS systems, respectively, were deleted using the upp-based counterselectable gene replacement system. Briefly, in-frame deletions were constructed by amplifying 650-750 bp of the up- and downstream flanking regions of the deletion targets with two primer pairs (e.g., LBA0225A/LBA0225B and LBA0225C/LBA0225D; Table 4). The resulting purified products were joined by splicing using overlap extension PCR (SOE-PCR63) and amplified to establish the deletion alleles. The SOE-PCR products, that include flanking restriction enzyme sites, were cloned within the BamHI and SacI/EcoRI sites of the pTRK935 integration vector and transformed into E. coli EC101. […]
as §3

Q: `N#C[C@H](O[C@@H]1O[C@H](CO[C@@H]2O[C@H](CO)[C@@H](O)[C@H](O)[C@H]2O)[C@@H](O)[C@H](O)[C@H]1O)c1ccccc1` [Amygdalin] was tested. Which “Growth (OD600 max class) of L. crispatus ATCC 33820, DSM 20584” value [1] did it give?
A: − (“−” signifies OD600 max < 0.1.)

Q: And the “Growth (OD600 max class) of L. amyloverus ATCC 33620, DSM 20531” value [2]?
A: − (“−” signifies OD600 max < 0.1.)

Q: And the “Growth (OD600 max class) of L. acidophilus LA-1” value (L. acidophilus LA-1)?
A: ++ (“++” signifies 0.6 > OD600 max > 0.3.)

Q: And the “Growth (OD600 max class) of L. animalis DSM 20602” value (L. animalis DSM 20602)?
A: − (“−” signifies OD600 max < 0.1.)

Q: What about the “Growth (OD600 max class) of L. fermentum ATCC 14931” value (L. fermentum ATCC 14931) of the same compound?
A: − (“−” signifies OD600 max < 0.1.)

Q: What about the “Growth (OD600 max class) of L. plantarum sp. plantarum ATCC 14917, LA70” value [3] of the same compound?
A: +++ (“+++” signifies OD600 max > 0.6.)

Q: And the “Growth (OD600 max class) of L. rhanmosus GG (ATCC 53103)” value [4]?
A: +++ (“+++” signifies OD600 max > 0.6.)

Q: And the “Growth (OD600 max class) of L. reuteri (ATCC 23272, DSM 20016)” value [5]?
A: − (“−” signifies OD600 max < 0.1.)

Q: And the “growth of the double P-Bgl mutant (LBA0225/LBA0726)” value [6]?
A: abolished

Q: What about the “Growth (OD600 max class) of L. acidophilus NCFM” value (L. acidophilus NCFM) of the same compound?
A: + (“+” signifies 0.3 > OD600 max > 0.1.)

Q: What about the OD600 max (L. acidophilus NCFM; growth concentration 1% (w/v)) of the same compound?
A: 0.3

Q: What about the “growth of the ΔLBA0726 mutant (P-Bgl)” value (NCK2424 (ΔLBA0726)) of the same compound?
A: severe reduction in growth

Q: Which results are given for `OCc1ccccc1O[C@@H]1O[C@H](CO)[C@@H](O)[C@H](O)[C@H]1O` [Salicin]?
A: Growth (OD600 max class) of L. crispatus ATCC 33820, DSM 20584 [1]: +++ (“+++” signifies OD600 max > 0.6.); Growth (OD600 max class) of L. amyloverus ATCC 33620, DSM 20531 [2]: − (“−” signifies OD600 max < 0.1.); Growth (OD600 max class) of L. acidophilus LA-1 (L. acidophilus LA-1): +++ (“+++” signifies OD600 max > 0.6.); Growth (OD600 max class) of L. animalis DSM 20602 (L. animalis DSM 20602): + (“+” signifies 0.3 > OD600 max > 0.1.); Growth (OD600 max class) of L. fermentum ATCC 14931 (L. fermentum ATCC 14931): − (“−” signifies OD600 max < 0.1.); Growth (OD600 max class) of L. plantarum sp. plantarum ATCC 14917, LA70 [3]: +++ (“+++” signifies OD600 max > 0.6.); Growth (OD600 max class) of L. rhanmosus GG (ATCC 53103) [4]: +++ (“+++” signifies OD600 max > 0.6.); Growth (OD600 max class) of L. reuteri (ATCC 23272, DSM 20016) [5]: − (“−” signifies OD600 max < 0.1.); Growth (OD600 max class) of L. acidophilus NCFM (L. acidophilus NCFM): +++ (“+++” signifies OD600 max > 0.6.); OD600 max (L. acidophilus NCFM; growth concentration 1% (w/v)): 0.8

Q: `O=c1ccc2cc(O[C@@H]3O[C@H](CO)[C@@H](O)[C@H](O)[C@H]3O)c(O)cc2o1` [Esculin] was tested. Which “Growth (OD600 max class) of L. crispatus ATCC 33820, DSM 20584” value [1] did it give?
A: ++ (“++” signifies 0.6 > OD600 max > 0.3.)

Q: What about the “Growth (OD600 max class) of L. amyloverus ATCC 33620, DSM 20531” value [2] of the same compound?
A: − (“−” signifies OD600 max < 0.1.)

Q: What about the “Growth (OD600 max class) of L. acidophilus LA-1” value (L. acidophilus LA-1) of the same compound?
A: +++ (“+++” signifies OD600 max > 0.6.)

Q: And the “Growth (OD600 max class) of L. animalis DSM 20602” value (L. animalis DSM 20602)?
A: + (“+” signifies 0.3 > OD600 max > 0.1.)

Q: What about the “Growth (OD600 max class) of L. fermentum ATCC 14931” value (L. fermentum ATCC 14931) of the same compound?
A: − (“−” signifies OD600 max < 0.1.)

Q: And the “Growth (OD600 max class) of L. plantarum sp. plantarum ATCC 14917, LA70” value [3]?
A: ++ (“++” signifies 0.6 > OD600 max > 0.3.)

Q: And the “Growth (OD600 max class) of L. rhanmosus GG (ATCC 53103)” value [4]?
A: ++ (“++” signifies 0.6 > OD600 max > 0.3.)

Q: What about the “Growth (OD600 max class) of L. reuteri (ATCC 23272, DSM 20016)” value [5] of the same compound?
A: − (“−” signifies OD600 max < 0.1.)

Q: What about the “Growth (OD600 max class) of L. acidophilus NCFM” value (L. acidophilus NCFM) of the same compound?
A: ++ (“++” signifies 0.6 > OD600 max > 0.3.)

Q: And the OD600 max (L. acidophilus NCFM; growth concentration 0.5% (w/v))?
A: 0.4
